Source: US20240383869A1, “ARYLACETYL INHIBITORS OF TG2 AND USES THEREOF” (UNIVERSITY OF OTTAWA, priority 2021, published 2024)

Assays:
[1] = molecular target: T1, hTG2 (Homo sapiens, UniProt P21980); conditions: shown previously; cited from earlier work
T1 sequence (P21980 1-687): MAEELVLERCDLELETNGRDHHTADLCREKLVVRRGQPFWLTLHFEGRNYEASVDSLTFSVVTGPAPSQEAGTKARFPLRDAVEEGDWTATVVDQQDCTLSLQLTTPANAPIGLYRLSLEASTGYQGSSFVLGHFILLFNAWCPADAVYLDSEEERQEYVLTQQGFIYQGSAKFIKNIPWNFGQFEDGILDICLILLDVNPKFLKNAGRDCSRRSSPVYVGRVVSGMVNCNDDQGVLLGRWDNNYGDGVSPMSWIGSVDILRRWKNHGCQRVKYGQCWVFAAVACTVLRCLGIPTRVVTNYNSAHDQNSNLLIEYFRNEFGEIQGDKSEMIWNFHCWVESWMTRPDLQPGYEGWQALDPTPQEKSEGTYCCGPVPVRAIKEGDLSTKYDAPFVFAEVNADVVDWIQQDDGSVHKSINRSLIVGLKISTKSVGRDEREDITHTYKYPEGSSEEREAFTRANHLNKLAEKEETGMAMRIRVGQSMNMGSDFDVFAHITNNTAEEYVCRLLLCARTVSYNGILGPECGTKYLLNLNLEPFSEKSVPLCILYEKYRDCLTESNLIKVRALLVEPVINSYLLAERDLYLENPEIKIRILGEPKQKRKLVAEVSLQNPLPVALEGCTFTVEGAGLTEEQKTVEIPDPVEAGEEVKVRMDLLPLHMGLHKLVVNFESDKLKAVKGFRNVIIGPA

[2] = molecular target: T1, hTG2; test: In vitro GTP binding assay (BODIPY GTP-γ-S fluorescence); conditions: inhibitor 2×KI, 30 minutes at 25° C.; 3 μM BODIPY GTP-γ-S
Protocol: Previously we proposed a mechanism of action for the NC9, VA4 and AA9 inhibitors based on their ability to react covalently with the open conformation of TG2, locking the enzyme in that conformation and thereby abolishing the enzyme's ability to bind GTP and act as a G-protein. […] We used the same in vitro GTP binding assay to measure the ability of representative phenylacetyl inhibitors 67 and 72 to abolish GTP binding, as follows:
In vitro GTP binding assay. GTP binding was measured using a method similar to that reported previously (McEwen, D. P. et al., “Fluorescent BODIPY-GTP analogs: Real-time measurement of nucleotide binding to G proteins.” Anal. Biochem. 2001, 291 (1), 109-117). […] The buffer was then exchanged to 100 mM MOPS (pH=7.0), 1 mM EGTA and 5 mM MgCl2 to remove calcium via dialysis using a 10-kDa molecular weight cut off membrane. The fluorescent GTP analog was added to give a final concentration of 3.0 μM and fluorescence was measured on a microplate reader after 10 minutes of incubation (Ex/Em: 490/520 nm).

Compound | suppression of TG2 binding of GTP-γ-S-FL BODIPY [1] | inhibition of GTP binding of hTG2 [2]
C=CC(=O)NCCCC[C@H](NC(=O)OCc1ccccc1)C(=O)N1CCN(C(=O)c2cccc3ccccc23)CC1 [AA9, reference compound] | suppress the ability of TG2 to bind GTP-γ-S-FL BODIPY | –
C=CC(=O)NCCCC[C@H](NC(=O)Cc1ccccc1F)C(=O)N1CCN(C(=O)c2cccc3ccccc23)CC1 [Inhibitor 72, (S)-N-(6-(4-(1-naphthoyl)piperazin-1-yl)-5-(2-(2-fluorophenyl)acetamido)-6-oxohexyl)acrylamide] | – | abolished the GTP binding ability
